Measurements from patent US20050100888A1, “Methods based on hormone dependency of primary cancer cells” (Imperial College Innovations Limited, priority 2002, published 2005).

Key:
[1] = test system: estrogen receptor (ER); test: adeno-reporter assay in purified primary breast cancer cells (tumour, lymph node); type: cell-based, human; conditions: for Reporter response: E2 10 nM, OHT 100 nM, ICI 100 nM, 48 h
Experimental: The product was then filtered through a nylon mesh (Lockertex Ltd, Merseyside, UK) and the filtrate centrifuged at 2000 rpm, at room temperature (RT). The pellet was re-suspended in 9 mls of RPMI/1% FCS and a cell count performed to estimate the number of tumour cells in the preparation. […] A count of viable tumour cells was performed using trypan blue (Sigma, Poole, UK) prior to seeding in breast complete medium (DMEM/F-12 containing, 15 mM Hepes, 2 mM L-glutamine, 100U/ml penicillin, O. 1 mg/ml streptomycin, 50 U/ml polymixin B, 2.5 μg/ml amphotericin B, 5 μg/ml insulin, 10 μg/ml apo-transferrin, 100 μM ethanolamine, 1 μg/ml hydrocortisone, 10 ng/ml EGF) plus 5% FCS) for culture. The cells were used for experiments on day 3 after the initial plating.
(§1) For infections of primary cells, 6-10,000 cells/well were allowed and exposed to the given quantity of virus, after which they were pelleted and re-supended in 200 ul of PR free/5% DSS medium containing the appropriate ligands prior to plating into 96-well plates.
Cells were incubated for 48 hours following infections unless stated otherwise.
(§2) Reporter Gene Assay 48 hours after virus infection, 20 ul of 20% Triton in PBS was added to each well and incubated at RT for 10 minutes. […] (CRPG) made up in TBS at a concentration of 8 mg/ml was then added to the wells and the plate was incubated, foil-wrapped, at 37° C. until a colour change was observed. Plate readings were taken at a wavelength of 547 nm.
We have used the adeno-reporter to infect purified cells from breast cancer and lymph nodes of 19 patients. The reporter assay was performed in a blinded fashion since the IHC report of ER status was not available until after the experiments were complete. Viral infections were performed in suspension so as not to loose cancer cells since they were only loosely adherent. Following exposure to the virus for an hour, the cells were washed to remove excess virus and then plated and incubated in PR free/5% DSS supplemented with the given ligands for 48 hours.

[2] = test system: estrogen receptor (ER); test: adenoERreporter assay in breast cancer cells from metastatic effusions (pleural, ascites); type: cell-based, human
Source text: In the case of metastatic fluid, 100 mls of the fluid was sent for cytological examination and staining for ER and PR. The remaining fluid was centrifuged and the cell pellets were pooled. This was re-suspended in RPMI-1640/1% FCS and tumour cell numbers estimated as before. If the cells were in clusters, trypsin/EDTA (Sigma, Poole, UK) was used to obtain single cell suspensions before filtering to remove any debris. The remaining steps were as above. The purified cells were either infected immediately or cultured for a few days prior to infection.
as §1, §2
(§3) We purified breast cancer cells from metastatic fluid, both pleural and ascites as well as fine needle aspirates (FNA) from recurrent breast cancer. These cells were counted and infected with adenoERreporter and after 48 hours a β-gal assay was performed. We have infected 9 metastatic effusions including 2 cell lines of passage number two, derived from pleural effusions and 4 FNAs. Tables 3 and 4 show the treatment history and characteristics of the patients that provided the samples. Where possible, some of the fluid was sent for cytology and ER staining.

[3] = test system: estrogen receptor (ER); test: adenoERreporter assay in fine needle aspirates (FNA) from recurrent breast cancer; type: cell-based, human
Experimental: Cells obtained from FNAs were collected in PBS (Sigma, Poole, UK) containing 2% FCS. If the aspirate was bloody, erythrocyte lysis buffer (0.155M NH4Cl, 10 mM KHCO3, 0.1 mM EDTA, pH 7.4) was used to lyse the red blood cells and after a further wash with PBS, the cells were re-suspended in culture media for counting and immediate infections.
as §1, §2
as §3, with “staining. However, this was not always feasible due to the variability of cancer cells in the metastatic fluid.” for “staining.”

[4] = test system: estrogen receptor (ER); test: viral ER reporter in ER negative breast cancer cell lines; type: cell-based, human; conditions: virus 100:1
Experimental: FIG. 3: Reporter activity in variety of estrogen receptor alpha positive (MCF-7, T47-D, ZR75-1, BT474) and negative (Cal-51, SkBr3, and MDA-MB231 cell lines). For each figure, the order is as follows: (1) refers to the no ligand control.
For adenovirus infections, cell lines were plated in 96 wells at the given density in phenol red free DMEM supplemented with 5% double-stripped serum (PR/5% DSS). The following day cells were exposed to the given quantity of plaque forming units per cell (multiplicity of infection, MOI) in PR/SF medium. This was incubated at 37° C. for 1 hour after which the media was replaced by PR free/5% DSS containing the ligands.
as §2
We went on to test the virus reporter in a variety of ER positive and ER negative cell lines. Again 0.5×10^5 cells were infected with 100 virus per cell (100:1). Using the GFP virus it was evident that the infectability of the cell lines was variable. […]

[5] = test system: malignant mammary epithelial cells; test: effects of estradiol and tamoxifen on survival of purified malignant mammary epithelial cells (Trypan blue counts); type: cell-based, human; conditions: for effect on cell death: ER positive purified breast cancer cells, E2 10 nM, OHT 100 nM
Experimental: (§4) 1×10^5 cells were plated into the wells of 96 well plates. […] Total and viable (Trypan blue) cell counts were measured during the time course of the experiment.
(§5) Normal cells were studied at several time points whereas due to limited number of cells, studies were limited to 2 time points in tumors. Trypan Blue staining determined viable cell numbers.

[6] = test system: normal mammary epithelial cells; test: effects of estrogen and tamoxifen on purified normal mammary epithelial cells; type: cell-based, human; conditions: purified normal breast cells
Experimental: Cell viability was assessed using exclusion of Trypan blue staining. Proliferation of cells in culture was assessed by measuring tritiated thymidine (3HTdR) incorporation into DNA and using the MTS assay. For ^3HTdR-labelling, purified cells were seeded into the wells of 24-well dishes. The medium was subsequently changed for 0.5 ml of ^3HTdR-supplemented thymidine-free medium (RPMI, 2 mM L-glutamine, 100U/ml penicillin, 0.1 mg/ml streptomycin plus dialysed 2% FCS). The amount of incorporated ^3HTdR in the cultures was measured by scintillation counting following precipitation with trichloroacetic acid. MTS assays were carried out using the Cell Titre 96 (Promega, UK), according to manufacturer's protocols.
as §4, §5

[7] = test system: ER positive tumours; conditions: cited from earlier work
[8] = Table 2 patient 5 Ln, ER+/PR−, Pre
[9] = Table 2 patient 8, ER+++/PR−, Post
[10] = Table 2 patient 12 Tu, Anaplastic small cell carcinoma, ER−/PR−
[11] = Table 2 patient 13, ER−/PR−, Post

Molecule	Reporter response [1, 8]	Reporter response [1, 9]	Reporter response ([1]; Table 2 patient 12 Ln)	Reporter response [1, 10]	Reporter response [1, 11]	Reporter response ([1]; Table 2 patient 15 Ln)	Reporter response ([1]; Table 2 patient 15 Tu, ER−/PR−)	Reporter response ([1]; Table 2 patient 16 Ln)	Reporter response ([1]; Table 2 patient 16 Tu, Post)	Reporter response ([1]; Table 2 patient 17)	Reporter response ([1]; Table 2 patient 18, ER−/PR−)	effect on cell death [5]	other results
4-hydroxytamoxifen [4-OHT]	ns	ns	ns	ns	ns	ns	ns	ns	ns	ns	ns	–	effect on ER activity ([2]; patient 4 (table 3), ascites, no previous treatment): inhibitory; Reporter Assay: inhibition ([3]; FNA summary table, N = 1, IHC ER−/PR−, ?Responder): OHT/ICI inhibit by × 1.8
C[C@]12CC[C@@H]3c4ccc(O)cc4CC[C@H]3[C@@H]1CC[C@@H]2O [E2, 17β-estradiol]	ns	ns	ns	ns	ns	ns	ns	ns	ns	ns	ns	reduction in cell death	effect on ERE driven β-gal reporter / baseline activity [4]: no appreciable effect; stimulatory effect on the reporter above the background activity ([2]; ER positive relapsed patients, compared with primary breast tumour): less of a stimulatory effect; Reporter Activity ([2]; Table 3 patient 1) T2G2NxM0, PE, primary ER++/PR−, prior Tamoxifen 3y, Lentaron 5m): Ns; Reporter Activity ([3]; Table 4 patient 1) T3G2N1M0, FNA ER−/PR−, no prior endocrine treatment): Ns; effect of estrogen on cells ([5]; ER negative breast cancer cells): no effect; expression of estrogen-regulated genes after estrogen exposure [6]: expressing both PR and PS2
CC/C(=C(\c1ccccc1)c1ccc(OCCN(C)C)cc1)c1ccccc1 [tamoxifen]	–	–	–	–	–	–	–	–	–	–	–	reversed	effect on reporter activity across patient samples ([1]; purified cells from breast cancer and lymph nodes of 19 patients): inhibitory in most cases but did show some agonistic activity in a proportion of patients; increase in reporter activity in the presence of tamoxifen ([2]; patient 1 (Table 3)): approximately 10 fold; response of cells to tamoxifen ([2]; patient 3, table 3, previous tamoxifen for one year): continued to respond to tamoxifen; effect on reporter compared with E2 ([2]; patient samples 1, 5 and 6 (Table 3) and patient 6 (Table 4), relapsed after tamoxifen): an effect at least equivalent to E2; cell numbers after tamoxifen treatment compared to estradiol treatment ([5]; 7 tumors studied, responders all ER positive, viable counts by Trypan Blue): Four out of the 7 tumors studied showed significant reduction in cell numbers; effect on proliferation [6]: decrease; patients with ERα-positive disease that do not respond ([7]; breast cancer patients, adjuvant/metastatic treatment): approximately 30%; patients with ER positive tumours that fail to respond ([7]; primary endocrine therapy (Gazet et al 1987)): ~50%
